Measured values reported in PubChem BioAssay (NCI).
Where “and” joins values, the source holds several entries; their conditions need not be identical. Identical values can stand only once.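 The compound was tested at five concentrations on cells cultured in 96-well plates, with a 48-hour exposure period. Here, GI50 denotes the concentration required for 50% inhibition of growth. At the TGI there is no net growth.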

Legend:
Assay in all cases: NCI tumour cell line growth inhibition, 48 h
[1] = tested on: A498 renal
[2] = tested on: MOLT-4 leukemia
[3] = tested on: PC-3 prostate
[4] = tested on: SK-MEL-28 melanoma
[5] = tested on: SN12C renal
[6] = tested on: SR leukemia
[7] = tested on: T-47D breast
[8] = tested on: TK-10 renal

SMILES | GI50 [1] | TGI [1] | GI50 [2] | TGI [2] | GI50 [3] | TGI [3] | GI50 [4] | TGI [4] | GI50 [5] | TGI [5] | GI50 [6] | TGI [6] | GI50 [7] | TGI [7] | GI50 [8] | TGI [8]
CO[C@@H]1[C@H](N(C)C(=O)c2ccccc2)C[C@@H]2O[C@]1(C)n1c3ccccc3c3c4c(c5c6ccccc6n2c5c31)C(=O)NC4=O | 0.206 µM | 0.661 µM | 1.96 µM | > 100 µM | 0.562 µM | > 100 µM | > 100 µM | > 100 µM | 0.459 µM | > 100 µM | 0.504 µM | > 100 µM | 0.811 µM | > 100 µM | – | –
O=C(/C=C/c1cccnc1)c1ccccc1 | 11.7 µM | 23.9 µM | 4.32 µM | 20.2 µM | 11 µM | 26.5 µM | 13.1 µM | 25.8 µM | 12.2 µM | 25.9 µM | 2 µM | 6.21 µM | 12.4 µM | 28.6 µM | 13.9 µM | 27.1 µM
CC(=O)NS(=O)(=O)c1ccc(-n2nc(-c3ccccc3)cc2-c2cc(O)ccc2O)cc1 | – | – | > 100 µM | > 100 µM | > 100 µM | > 100 µM | > 100 µM | > 100 µM | > 100 µM | > 100 µM | > 100 µM | > 100 µM | > 100 µM | > 100 µM | 10.9 µM | > 100 µM
COc1cccc(Nc2ncnn3ccc(CN4CC[C@@H](N)[C@H](O)C4)c23)c1 | 1.12 µM and 0.861 µM | 4.72 µM and 3.75 µM | 5.68 µM and 2.26 µM | 33.2 µM and > 10 µM | 15.2 µM and > 2.39 µM | > 100 µM | 17 µM and > 5.4 µM | 31.1 µM and > 10 µM | 0.265 µM and 0.304 µM | 18.5 µM and > 10 µM | 5.19 µM and > 4.99 µM | 40.7 µM and > 10 µM | – | 29.2 µM and > 6.86 µM | 0.0322 µM and 0.0167 µM | 1.65 µM and 1.5 µM
Oc1c(CCl)cc(Cl)cc1Cc1cc(Cl)cc(Cc2cc(Cl)cc(CCl)c2O)c1O | – | – | 2.67 µM | 13.4 µM | 2.7 µM | 10.1 µM | 3.1 µM | 16.1 µM | 2.56 µM | 8.79 µM | 2.85 µM | 41 µM | 2.21 µM | 9.39 µM | 3.9 µM | 24.1 µM
CCOC(=O)Cc1csc(Nc2nc(O)c(C3=c4ccccc4=NC3=O)s2)n1 | 31.6 µM | 77.7 µM | 36.7 µM | 88.9 µM | 30.8 µM | > 100 µM | 45.7 µM | > 100 µM | 28 µM | 98.2 µM | – | – | 54.4 µM | > 100 µM | 44.7 µM | > 100 µM
O=C(O)c1cc(C(=O)C(=O)c2cc(C(=O)O)c(O)c3ccccc23)c2ccccc2c1O | – | > 100 µM | – | – | – | > 100 µM | – | > 100 µM | – | > 100 µM | – | – | – | > 100 µM | – | > 100 µM
COC(=O)Nc1nc2ccc(C(=O)C3CC3)cc2[nH]1 | 0.421 µM | – | 1.25 µM | > 100 µM | 0.346 µM | > 100 µM | 0.506 µM | > 63.7 µM | 0.717 µM | > 100 µM | 0.455 µM | > 100 µM | – | – | 1.38 µM | 47.2 µM
COc1c(O)cc2c(c1CC=C(C)C)OC(=O)c1c(cc(O)c(CC=C(C)C)c1O)O2 | – | – | 4.1 µM | 12.7 µM | 4.87 µM | 9.7 µM | 4.76 µM | 9.52 µM | 3.67 µM | 7.37 µM | 3.95 µM | 10.5 µM | 4.48 µM | 8.72 µM | 5.49 µM | 11.7 µM
COc1cc2c3c(n(CCCNC(C)(C)CO)c(=O)c2cc1OC)-c1cc2c(cc1C3=O)OCO2 | 17.1 µM | 40.1 µM | – | 0.11 µM | 2.75 µM | 16.3 µM | 25.4 µM | > 65.6 µM | 0.157 µM | 2.65 µM | – | – | 3.47 µM | 47.6 µM | 13 µM | 38.6 µM
O=C(NCCCNc1cc(-c2cn(-c3ccccc3)nc2-c2cccc(O)c2)ccn1)c1ccc(F)cc1 | – | – | 2.36 µM | 14 µM | 2.81 µM | 15.7 µM | 1.74 µM | 4.12 µM | 4.29 µM | 30.8 µM | 1.65 µM | 6.53 µM | 1.14 µM | 5.11 µM | 4.47 µM | 26.3 µM
ClCCN(CCCl)c1ccc(OCc2ccccc2)cc1 | 3.54 µM | 19.5 µM | 1.74 µM | 40 µM | 5.28 µM | > 100 µM | 13.8 µM | 40.9 µM | 2.76 µM | 58.6 µM | 0.395 µM | 15.5 µM | 4.4 µM | 28.7 µM | – | –
CCOC(=O)c1c2c(n(Cc3ccccc3)c1C)-c1nc[nH]c1C(=O)C2=O | 16.3 µM | 30.1 µM | 2.84 µM | 10.3 µM | – | – | 19.3 µM | 34.1 µM | 16.4 µM | 30 µM | 1.29 µM | 3.6 µM | 11.4 µM | 30.7 µM | 16.2 µM | 31.3 µM
Cc1ccc([I+]c2ccc(C)cc2)cc1 | 2.28 µM | > 100 µM | – | – | 6.73 µM | > 100 µM | 10.6 µM | > 100 µM | 18.6 µM | > 100 µM | – | – | 3.69 µM | 54.2 µM | 6.63 µM | > 100 µM
Cc1cn2c(/C=N/NC3=NCCN3)c(-c3ccc(Cl)c([N+](=O)[O-])c3)nc2s1 | 9.4 µM | 21.4 µM | – | – | 1.65 µM | 4.56 µM | – | – | 0.942 µM | 1.96 µM | – | – | 1.75 µM | > 50 µM | 1.05 µM | 2.7 µM
O=C1/C(=C\c2ccc(Cl)cc2)CN(C(=O)c2ccccc2)C/C1=C\c1ccc(Cl)cc1 | 23 µM | > 74 µM | 4.25 µM | > 100 µM | 2.57 µM | 10.1 µM | 2.94 µM | 9.68 µM | 2.16 µM | 5.4 µM | – | – | 4.33 µM | > 100 µM | 3.59 µM | 14.1 µM
O=C(NC(=S)Nc1ccc(-c2nc3ccccc3[nH]2)cc1)c1ccc2ccccc2c1 | 10.7 µM | 57.8 µM | 8.04 µM | > 100 µM | 3.26 µM | 35.5 µM | 3.86 µM | 23.4 µM | 3.18 µM | 9.81 µM | 0.645 µM | 11.6 µM | – | – | 3.33 µM | 8.44 µM
